Our source for the EC50 values is publication doi:10.1101/2021.01.21.427670v1 (biorxiv, 2021).

Usually EC50 stands for the midpoint of the concentration-response curve. A high value points to a need for much substance.

Test [1] concerns the target T1, α4β1δ GABAA receptor (Homo sapiens, UniProt P18505+P48169, P18505:I289Q). The test can be described thus: FLIPR membrane potential. Type of test: cell-based.
In test [2] the target is T2, α4β1δ GABAA receptor (Homo sapiens, UniProt P18505+P48169, P48169:S303L). Kind of test: FLIPR membrane potential. Type of test: cell-based.
Test [3] addresses T3, α4β1δ GABAA receptor (Homo sapiens, UniProt P18505+P48169). Kind of test: FLIPR membrane potential. Type of test: cell-based.
In test [4] the target is T2, α4β1δ GABAA receptor. Kind of test: cell-based. Set-up: species or system HEK293 Flp-In.
Test [5] deals with T3, α4β1δ GABAA receptor. Kind of test: cell-based. Also noted: species or system HEK293 Flp-In.
Test [6] has as its target T1, α4β1δ GABAA receptor. The test can be described thus: cell-based. Also noted: species or system HEK293 Flp-In.

T3 sequence (P48169 36-554): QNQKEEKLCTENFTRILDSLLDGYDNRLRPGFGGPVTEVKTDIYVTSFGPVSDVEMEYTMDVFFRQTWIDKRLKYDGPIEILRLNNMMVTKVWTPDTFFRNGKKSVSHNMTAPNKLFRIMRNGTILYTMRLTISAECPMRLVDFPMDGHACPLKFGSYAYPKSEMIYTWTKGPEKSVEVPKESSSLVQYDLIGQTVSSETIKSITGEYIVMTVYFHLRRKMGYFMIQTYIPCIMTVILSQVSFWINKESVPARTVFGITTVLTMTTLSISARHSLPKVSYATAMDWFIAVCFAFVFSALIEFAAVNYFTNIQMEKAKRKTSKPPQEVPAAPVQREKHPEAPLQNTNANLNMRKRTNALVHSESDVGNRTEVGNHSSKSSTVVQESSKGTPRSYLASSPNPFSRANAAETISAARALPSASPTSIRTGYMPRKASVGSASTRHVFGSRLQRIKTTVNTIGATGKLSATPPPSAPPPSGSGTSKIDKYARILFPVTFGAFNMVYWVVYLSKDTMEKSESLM
T3 sequence (P18505 26-474): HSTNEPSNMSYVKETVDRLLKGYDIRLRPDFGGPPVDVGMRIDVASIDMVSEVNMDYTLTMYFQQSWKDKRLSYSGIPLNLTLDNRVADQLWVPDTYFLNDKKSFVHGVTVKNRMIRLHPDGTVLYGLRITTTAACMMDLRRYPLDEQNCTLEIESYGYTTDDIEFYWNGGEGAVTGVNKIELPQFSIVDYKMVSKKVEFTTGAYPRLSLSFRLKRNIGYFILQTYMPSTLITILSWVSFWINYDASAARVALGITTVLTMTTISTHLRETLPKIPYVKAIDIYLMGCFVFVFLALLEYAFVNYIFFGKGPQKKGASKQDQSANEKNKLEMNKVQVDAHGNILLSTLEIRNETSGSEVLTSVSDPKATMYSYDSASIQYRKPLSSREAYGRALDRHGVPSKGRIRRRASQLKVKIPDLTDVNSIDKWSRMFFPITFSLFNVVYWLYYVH
T3 sequence (O14764 25-452 partner): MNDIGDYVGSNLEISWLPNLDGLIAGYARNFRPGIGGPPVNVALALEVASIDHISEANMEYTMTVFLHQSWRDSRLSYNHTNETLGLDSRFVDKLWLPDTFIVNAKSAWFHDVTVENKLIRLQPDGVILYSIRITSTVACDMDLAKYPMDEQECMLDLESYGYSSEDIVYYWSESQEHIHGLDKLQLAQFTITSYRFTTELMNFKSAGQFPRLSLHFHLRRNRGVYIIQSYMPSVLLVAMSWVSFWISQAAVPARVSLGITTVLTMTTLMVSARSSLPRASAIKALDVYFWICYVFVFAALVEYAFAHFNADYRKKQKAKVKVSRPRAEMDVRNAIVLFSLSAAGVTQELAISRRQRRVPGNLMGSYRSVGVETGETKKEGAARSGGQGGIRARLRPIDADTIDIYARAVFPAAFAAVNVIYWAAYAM
T1 sequence (P48169 36-554): as the sequence (P48169 36-554) above
T1 sequence (P18505 26-474 I289Q): as the sequence (P18505 26-474) above, with I264Q counted along it
T1 sequence (O14764 25-452 partner): as the sequence (O14764 25-452 partner) above
T2 sequence (P48169 36-554 S303L): as the sequence (P48169 36-554) above, with S268L counted along it
T2 sequence (P18505 26-474): as the sequence (P18505 26-474) above
T2 sequence (O14764 25-452 partner): as the sequence (O14764 25-452 partner) above

Turning to `CCOC(=O)c1cncn1[C@H](C)c1ccccc1` [etomidate, (R)-1-(1-phenylethyl)-1H-imidazole-5-carboxylic acid ethyl ester], the results for the concentration for a half-maximal effect (EC50) in test [1], in test [2] and in test [3] were 9.3 µM, 6.2 µM and 7.8 µM, respectively.
Consider `CCOC(=O)Nc1ccc(NCc2c(C)cc(C)cc2C)cc1N` [AA29504, [2-amino-4-(2,4,6-trimethylbenzylamino)-phenyl]-carbamic acid ethyl ester], for which the figures for the EC50 in test [4], in test [5] and in test [6] were 0.25 µM, 0.55 µM and 0.76 µM, respectively.
